SMILES strings stand for the structures.

T1 sequence (P50750 whole entry): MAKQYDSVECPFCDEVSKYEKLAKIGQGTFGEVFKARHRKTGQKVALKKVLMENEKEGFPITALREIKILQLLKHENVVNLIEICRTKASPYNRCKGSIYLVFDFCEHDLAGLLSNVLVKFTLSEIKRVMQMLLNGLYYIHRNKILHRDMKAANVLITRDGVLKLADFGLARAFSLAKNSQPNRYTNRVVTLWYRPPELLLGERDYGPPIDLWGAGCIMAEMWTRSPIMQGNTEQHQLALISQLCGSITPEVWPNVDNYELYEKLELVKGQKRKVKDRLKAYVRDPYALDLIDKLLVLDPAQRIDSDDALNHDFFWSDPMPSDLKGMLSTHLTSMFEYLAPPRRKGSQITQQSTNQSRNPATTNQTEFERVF
T1 sequence (O60563 whole entry partner): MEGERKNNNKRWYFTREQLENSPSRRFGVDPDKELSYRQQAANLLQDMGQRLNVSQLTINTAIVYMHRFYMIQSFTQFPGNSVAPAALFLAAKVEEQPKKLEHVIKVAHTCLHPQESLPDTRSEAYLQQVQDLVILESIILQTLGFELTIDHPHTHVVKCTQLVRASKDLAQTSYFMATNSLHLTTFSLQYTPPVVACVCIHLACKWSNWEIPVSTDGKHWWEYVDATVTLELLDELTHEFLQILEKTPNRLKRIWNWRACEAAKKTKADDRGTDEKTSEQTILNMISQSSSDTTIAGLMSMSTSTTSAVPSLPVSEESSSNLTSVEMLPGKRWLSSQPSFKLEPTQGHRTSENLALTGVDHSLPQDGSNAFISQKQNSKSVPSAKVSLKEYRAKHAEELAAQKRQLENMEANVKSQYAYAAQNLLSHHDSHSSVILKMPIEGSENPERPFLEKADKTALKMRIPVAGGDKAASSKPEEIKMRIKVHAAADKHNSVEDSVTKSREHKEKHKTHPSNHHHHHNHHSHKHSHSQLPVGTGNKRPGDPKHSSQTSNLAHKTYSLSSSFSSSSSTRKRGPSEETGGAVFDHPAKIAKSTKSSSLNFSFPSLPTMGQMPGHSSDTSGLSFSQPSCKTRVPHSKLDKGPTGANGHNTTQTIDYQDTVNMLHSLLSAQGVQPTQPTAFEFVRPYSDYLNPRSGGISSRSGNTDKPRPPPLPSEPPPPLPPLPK

One assay concerns the target T1, CDK9/cyclin T1 (Homo sapiens, UniProt P50750). The experiment in a line: CDK9/cyclin T1 kinase inhibition, LANCE assay. To be noted: reaction time 60 minutes, 10 μM ATP, 10-dose IC50, compounds 35-126 (127-208 listed, method not stated), read-out: CDK9/cyclin T1 Potency Grade. It counts as biochemical. The procedure: Exemplary compounds of the invention (35-126) were tested for inhibition of CDK9/cyclin T1 kinase. Using a LANCE assay (reaction time 60 minutes), the compounds were tested in 10-dose IC50 duplicate mode with a 3-fold serial dilution starting at 4.3 μM. […] Reactions were carried out at 10 μM ATP. Data was normalized to positive and negative controls and curve fits were analyzed with XLFIT5 as % inhibition vs. log [compound concentration] using a 4-parameter logistic model205. Fit=(A+((B−A)/(1+((C/x)^D)))); Res =(y-fit).
Take `N[C@H]1CC[C@H](Nc2cc(-c3cccc(Cl)c3)nc3ccnn23)C1` [Compound 75]: the IC50 fell in the range of 0.001 to 0.5 µM.

On to `N[C@@H]1CC[C@@H](Nc2cc(C3CC3)nc3ccnn23)C1` [Compound 43], for which the IC50 lay within 0.001 to 0.5 µM.

Take `CC(C)c1cc(N[C@@H]2CC[C@@H](N(C)C=O)C2)n2nccc2n1` [Compound 146]: the IC50 lay in the range of 0.001 to 0.5 µM.

As to `N[C@H]1CC[C@H](Nc2cc(C3=CCCOC3)nc3ccnn23)C1` [Compound 112], the IC50 was 0.001 to 0.5 µM.

In the case of `N[C@H]1CC[C@H](Nc2cc(-c3cccc4ccccc34)nc3ccnn23)C1` [Compound 172], the IC50 lay in the range of 0.001 to 0.5 µM.

With `N[C@H]1CC[C@H](Nc2cc(-c3ccc4c(c3)OCO4)nc3c(Cl)cnn23)C1` [Compound 195], the IC50 was in the range of 0.001 to 0.5 µM.

As to `Cc1ncc(-c2cc(N[C@H]3CC[C@H](N)C3)n3nccc3n2)cn1` [Compound 103], the IC50 fell in the range of 0.501 to 1 µM.

Take `CC1(C)CC1c1cc(N[C@H]2CC[C@H](N)C2)n2nccc2n1` (some centres unmarked) [Compound 208]: the IC50 lay in the range of 0.001 to 0.5 µM.

Consider `CC(C)OC(=O)N[C@@H]1CC[C@@H](Nc2cc(C(C)C)nc3ccnn23)C1` [Compound 140], for which the IC50 fell in the range of 0.001 to 0.5 µM.

As to `CN/C(=N/C#N)N[C@@H]1CC[C@@H](Nc2cc(C(C)C)nc3ccnn23)C1` [Compound 154], the IC50 lay in the range of 0.001 to 0.5 µM.

In the case of `Cc1cccc(-c2cc(N[C@H]3CC[C@H](N)C3)n3nccc3n2)c1` [Compound 164], the IC50 lay in the range of 0.001 to 0.5 µM.

In the case of `CC(C)OC(=O)N[C@@H]1CC[C@@H](Nc2cc(C(C)C)nc3c(Cl)cnn23)C1` [Compound 159], the IC50 lay within 0.501 to 1 µM.

Consider `COC(=O)N[C@H]1CC[C@H](Nc2cc(C3CC3)nc3ccnn23)C1` [Compound 180], for which the IC50 was above 1 µM.

For `COCCN[C@@H]1CC[C@@H](Nc2cc(C(C)C)nc3ccnn23)C1` [Compound 59], the IC50 was 0.001 to 0.5 µM.

On to `Cc1cc(C)cc(-c2cc(N[C@H]3CC[C@H](N)C3)n3nccc3n2)c1` [Compound 196], for which the IC50 fell in the range of 0.001 to 0.5 µM.

On to `CCC(CC)c1cc(N[C@H]2CC[C@H](NC(=O)c3cnc(C)cn3)C2)n2nccc2n1` [Compound 148], for which the IC50 is 0.001 to 0.5 µM.

On to `N[C@H]1CC[C@H](Nc2cc(C3=CCCCC3)nc3ccnn23)C1` [Compound 200], for which the IC50 was 0.001 to 0.5 µM.

Take `N[C@H]1CC[C@H](Nc2cc(N3CCCCC3)nc3ccnn23)C1` [Compound 156]: the IC50 was in the range of 0.001 to 0.5 µM.

With `CCN(CC)c1cc(N[C@H]2CC[C@H](N)C2)n2nccc2n1` [Compound 79], the IC50 fell in the range of 0.001 to 0.5 µM.

As for `Cc1cnn2c(N[C@@H]3CC[C@@H](NC(=O)OC(C)C)C3)cc(C(C)C)nc12` [Compound 85], the IC50 is 0.001 to 0.5 µM.

For `COc1cc(C)cc(-c2cc(N[C@H]3CC[C@H](N)C3)n3nccc3n2)c1` [Compound 161], the IC50 was in the range of 0.001 to 0.5 µM.

As to `CC1(c2cc(N[C@H]3CC[C@H](N)C3)n3nccc3n2)CC1` [Compound 123], the IC50 lay within 0.001 to 0.5 µM.

Regarding `CC(C)OC(=O)N[C@@H]1CC[C@@H](Nc2cc(C(C)C)nc3c(Cl)cnn23)C1` [Compound 68], the IC50 was in the range of 0.501 to 1 µM.

On to `Cc1cnn2c(N[C@@H]3CC[C@@H](NC(=O)OC(C)C)C3)cc(C(C)C)nc12` [Compound 176], for which the IC50 fell in the range of 0.001 to 0.5 µM.

Consider `CCC(CC)c1cc(N[C@H]2CC[C@H](Nc3ccccn3)C2)n2nccc2n1` [Compound 149], for which the IC50 lay within 0.001 to 0.5 µM.

On to `O=CN[C@@H]1CC[C@@H](Nc2cc(C3CC3)nc3ccnn23)C1` [Compound 51], for which the IC50 fell in the range of 0.001 to 0.5 µM.

On to `CN(Cc1ccccc1)c1cc(N[C@H]2CC[C@H](N)C2)n2nccc2n1` [Compound 188], for which the IC50 was 0.001 to 0.5 µM.

Regarding `CC(C)c1cc(N[C@H]2CC[C@H](N)C2)n2ncc(C#N)c2n1` [Compound 155], the IC50 fell in the range of 0.001 to 0.5 µM.

With `N[C@H]1CC[C@H](Nc2cc(-c3ccc4ccccc4c3)nc3ccnn23)C1` [Compound 160], the IC50 was 0.501 to 1 µM.

With `COC(=O)N[C@H]1CC[C@H](Nc2cc(C3CC3)nc3ccnn23)C1` [Compound 89], the IC50 is above 1 µM.

For `CC(C)(C#N)c1ccc(-c2cc(N[C@H]3CC[C@H](N)C3)n3nccc3n2)cc1` [Compound 204], the IC50 lay in the range of 0.001 to 0.5 µM.

In the case of `CC(=O)Nc1cc(N[C@@H]2CC[C@@H](N)C2)n2ncc(Cl)c2n1` [Compound 127], the IC50 lay within 0.001 to 0.5 µM.

As for `CC(C)c1cc(N[C@@H]2CC[C@@H](NC=O)C2)n2nccc2n1` [Compound 137], the IC50 lay in the range of 0.001 to 0.5 µM.

With `CCC(C)c1cc(N[C@@H]2CC[C@@H](NC=O)C2)n2nccc2n1` (some centres unmarked) [Compound 52], the IC50 is 0.001 to 0.5 µM.

As for `N[C@H]1CC[C@H](Nc2cc(C3=CCOCC3)nc3ccnn23)C1` [Compound 110], the IC50 fell in the range of 0.501 to 1 µM.

Regarding `CC(C)c1cc(N[C@@H]2CC[C@@H](N(O)C(N)=O)C2)n2nccc2n1` [Compound 60], the IC50 lay in the range of 0.001 to 0.5 µM.

Regarding `N[C@H]1CC[C@H](Nc2cc(Nc3cccc4ccccc34)nc3ccnn23)C1` [Compound 171], the IC50 fell in the range of 0.001 to 0.5 µM.

In the case of `O=C(N[C@H]1CC[C@H](Nc2cc(C3CC3)nc3ccnn23)C1)OCc1ccccc1` [Compound 84], the IC50 was above 1 µM.

In the case of `N[C@H]1CC[C@H](Nc2cc(C3=CCCCC3)nc3ccnn23)C1` [Compound 109], the IC50 fell in the range of 0.001 to 0.5 µM.

`N[C@H]1CC[C@H](Nc2cc(C#Cc3ccccc3)nc3ccnn23)C1` [Compound 118]: the IC50 lay within 0.001 to 0.5 µM.

On to `O=CN[C@@H]1CC[C@@H](Nc2cc(C3CC3)nc3ccnn23)C1` [Compound 142], for which the IC50 was in the range of 0.001 to 0.5 µM.

Consider `Cc1cc(-c2cc(N[C@H]3CC[C@H](N)C3)n3nccc3n2)ccn1` [Compound 100], for which the IC50 was 0.001 to 0.5 µM.

For `N[C@@H]1CC[C@@H](Nc2cc(C3CCC3)nc3ccnn23)C1` [Compound 133], the IC50 fell in the range of 0.001 to 0.5 µM.

Another assay concerns the target T1, CDK9/cyclin T1. The experiment in a line: CDK9/cyclin T1 inhibition, radiometric assay. It counts as biochemical. The conditions noted are these: read-out: CDK9/cyclin T1 Potency Grade. The method, then: Exemplary compounds of the invention (1-34) were tested for inhibition of CDK9/cyclin T1. […] Reactions were carried out at 10 μM ATP. Data was normalized to positive and negative controls and curve fits were executed with GraphPad software and were performed where the enzyme activities at the highest concentration of compounds were less than 65%.
For `CC(C)c1cc(N[C@@H]2CCOC2)n2nccc2n1` [Compound 30, 5-isopropyl-N-[(3R)-tetrahydrofuran-3-yl]pyrazolo[1,5-a]pyrimidin-7-amine], the IC50 was above 1 µM.

Consider `Cc1cc(N[C@H]2C[C@H](N)C2)n2nccc2n1` [Compound 11, [3-[(5-methylpyrazolo[1,5-a]pyrimidin-4-ium-7-yl)amino]cyclobutyl]ammonium dichloride], for which the IC50 lay within 0.501 to 1 µM.

As to `N[C@@H]1CC[C@H](Nc2cc(C3CCCC3)nc3ccnn23)C1` [Compound 23, (1R,3S)—N3-(5-cyclopentylpyrazolo[1,5-a]pyrimidin-7-yl)cyclopentane-1,3-diamine], the IC50 lay within 0.001 to 0.5 µM.

Take `CC(=O)Nc1cc(N[C@@H]2CC[C@@H](N)C2)n2nccc2n1` [Compound 34, [(1R,3R)-3-[(5-acetamidopyrazolo[1,5-a]pyrimidin-7-yl)amino]cyclopentyl]ammonium; 2,2,2-trifluoroacetate]: the IC50 was above 1 µM.

On to `N[C@H]1CC[C@H](Nc2cc(C3CCCC3)nc3ccnn23)CC1` [Compound 8, [4-[(5-cyclopentylpyrazolo[1,5-a]pyrimidin-4-ium-7-yl)amino]cyclohexyl]ammonium dichloride], for which the IC50 lay in the range of 0.001 to 0.5 µM.

In the case of `CC(=O)Nc1cc(N[C@@H]2CC[C@@H](N)C2)n2ncc(Cl)c2n1` [Compound 33, [(1R,3R)-3-[(5-acetamido-3-chloro-pyrazolo[1,5-a]pyrimidin-7-yl)amino]cyclopentyl]ammonium; 2,2,2-trifluoroacetate], the IC50 was in the range of 0.001 to 0.5 µM.

Take `CCc1cc(N[C@@H]2CC[C@@H](N)C2)n2nccc2n1` [Compound 25, (1R,3R)—N3-(5-ethylpyrazolo[1,5-a]pyrimidin-7-yl)cyclopentane-1,3-diamine]: the IC50 is 0.501 to 1 µM.

With `Cc1cc(NC2CCCC2)n2nccc2n1` [Compound 1, N-cyclopentyl-5-methyl-pyrazolo[1,5-a]pyrimidin-7-amine], the IC50 was above 1 µM.

With `CC(C)c1cc(NC2CCCCC2)n2nccc2n1` [Compound 29, N-cyclohexyl-5-isopropyl-pyrazolo[1,5-a]pyrimidin-7-amine], the IC50 lay in the range of 0.001 to 0.5 µM.

For `CCC(C)c1cc(N[C@H]2CC[C@H](N)CC2)n2nccc2n1` (some centres unmarked) [Compound 7, [4-[(5-sec-butylpyrazolo[1,5-a]pyrimidin-4-ium-7-yl)amino]cyclohexyl]ammonium dichloride], the IC50 was 0.001 to 0.5 µM.

As to `CCc1cc(N[C@H]2CC[C@H](N)C2)n2nccc2n1` [Compound 28, (1S,3S)-N3-(5-ethylpyrazolo[1,5-a]pyrimidin-7-yl)cyclopentane-1,3-diamine], the IC50 was 0.001 to 0.5 µM.

For `c1cc2nc(C3CCCC3)cc(NC3CCCC3)n2n1` [Compound 5, N,5-dicyclopentylpyrazolo[1,5-a]pyrimidin-7-amine], the IC50 was in the range of 0.001 to 0.5 µM.

As to `Cc1cc(N[C@H]2CC[C@@H](N)C2)n2nccc2n1` [Compound 12, [(1R,3S)-3-[(5-methylpyrazolo[1,5-a]pyrimidin-4-ium-7-yl)amino]cyclopentyl]ammonium dichloride], the IC50 lay within 0.501 to 1 µM.

For the compound `N[C@H]1C[C@H](Nc2cc(C3CCCC3)nc3ccnn23)C1` [Compound 20, N1-(5-cyclopentylpyrazolo[1,5-a]pyrimidin-7-yl)cyclobutane-1,3-diamine], the IC50 was 0.001 to 0.5 µM.

Regarding `Cc1cc(N[C@@H]2CC[C@H](N)C2)n2nccc2n1` [Compound 10, [(1S,3R)-3-[(5-methylpyrazolo[1,5-a]pyrimidin-4-ium-7-yl)amino]cyclopentyl]ammonium dichloride], the IC50 is above 1 µM.

In the case of `N[C@H]1CC[C@H](Nc2cc(C3CCCC3)nc3ccnn23)C1` [Compound 9, [(1S,3S)-3-[(5-cyclopentylpyrazolo[1,5-a]pyrimidin-4-ium-7-yl)amino]cyclopentyl]ammonium dichloride], the IC50 is 0.001 to 0.5 µM.

The record behind these values is US11155560B2, “Substituted pyrazolo[1,5-a]pyrimidines for modulating CDK9 activity” (Kronos Bio, Inc., priority 2018, dated 2021).
